Nine molecules from patent US20230227466A1, “SUBSTITUTED THIENOPYRIMIDINES THAT INTERACT WITH THE RAS SUPERFAMILY FOR THE TREATMENT OF CANCERS, INFLAMMATORY DISEASES, RASOPATHIES, AND FIBROTIC DISEASE” (SHY Therapeutics, LLC, priority 2020, published 2023) can be followed below.

Read-outs that look alike come from different tables or passages of the source.

The target of one assay is T1, KRas G12C mutant (Homo sapiens, UniProt P01116, G12C).
T1 construct: made in house
The experiment in a line: Ras GTP binding domain inhibition assay (labeled-GTP competition, cell-free). Summed up: (§1)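 Labeled-GTP competition read out as bound Cy3/Cy5-GTP fluorescence after washes, with 100 nM tracer for 45 min at RT. Before tracer, compounds at 20 μM, or a dilution series for IC50, sat 3 h at RT on the Ni-immobilized His-tagged GTPase. Sos GEF (10-30 μg/mL) was optionally present for the last hour.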

For the next assay, the target named is T2, KRas G12D mutant (Homo sapiens, UniProt P01116, G12D).
T2 construct: made in house
The assay is described as above. Summed up: as §1

The target in the next assay is T3, KRas Q61H mutant (Homo sapiens, UniProt P01116, Q61H).
T3 construct: made in house
The description is as above. To be noted: at 20 μM. Summed up:
as §1

Assay [1] has as its system Akt phosphorylation in Panc-1 cells. The experiment in a line: Western AKT cell-based phosphorylation assay. Set-up: species or system human. As to conditions: at 10 μM, values in brackets < > are activation %, not inhibition. Summed up: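 Panc-1 cells starved overnight in 0.5% FBS, exposed to compound at 10 μM (0.3% DMSO) for 6 h at 37° C, then stimulated with 1.5 ng/ml EGF for 15 min. Lysates probed by western blot with anti-phospho-Akt (Ser473), equal protein loading checked by Ponceau S.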

Another assay addresses KRas wild type (Homo sapiens, UniProt P01116). The experiment in a line: Ras GTP binding domain inhibition assay (labeled-GTP competition, cell-free). Set-up: made in house. Summed up: as §1
The next assay deals with Rac-1 (Homo sapiens, UniProt P63000). Described as above. Set-up: made in house. As to conditions: without SOS, read-out: Rac-1: % inh. Summed up: as §1
Another assay has as its target Rho-A (Homo sapiens, UniProt P61586). The description is as above. Set-up: made in house. As to conditions: without SOS, read-out: Rho-A: % inh. Summed up: as §1
The mark [2] stands for this setting: with SOS, read-out: KRas G12C mutant + SOS: % inh.
Setting [3] is: without SOS, read-out: KRas G12C mutant: % inh.
The mark [4] stands for this setting: with SOS, read-out: KRas G12D mutant + SOS: % inh.
Where [5] appears, read: without SOS, read-out: KRas G12D mutant: % inh.
Setting [6] is: with SOS, read-out: KRas Q61H mutant + SOS: % inh.
Setting [7] is: without SOS, read-out: KRas Q61H mutant: % inh.
[8] abbreviates: with SOS, read-out: KRas wild type + SOS: % inh.
Where [9] appears, read: without SOS, read-out: KRas wild type: % inh.

For the molecule `CO[C@H]1CCCN(c2nc(-c3nccn3C)nc3sc(-c4ccn(C(C)C)n4)c(C)c23)C1` [Compound 49, (S)-6-(1-Isopropyl-1H-pyrazol-3-yl)-4-(3-methoxypiperidin-1-yl)-5-methyl-2-(1-methyl-1H-imidazol-2-yl)thieno[2,3-d]pyrimidine], the inhibition at 20 µM was 51 to 75% at KRas G12C mutant (setting [2]); 1 to 25% on KRas G12C mutant (setting [3]); 26 to 50% at KRas G12D mutant (setting [4]); 0% on KRas G12D mutant (setting [5]); 51 to 75% at KRas Q61H mutant (setting [6]); 51 to 75% on KRas Q61H mutant (setting [7]). Moreover, the inhibition at 20 µM on KRas wild type (setting [8]) is 76 to 100%; at KRas wild type (setting [9]), 51 to 75%; on Rac-1, 26 to 50%; at Rho-A, 51 to 75%. Further, the “% inh of AKT phosphorylation in PANC-1” value in assay [1] is “D (76-100% inhibition)”.
Regarding `CO[C@@H]1CCCN(c2nc(-c3nccn3C)nc3sc(-c4ccn(C(C)C)n4)c(C)c23)C1` [Compound 50, (R)-6-(1-Isopropyl-1H-pyrazol-3-yl)-4-(3-methoxypiperidin-1-yl)-5-methyl-2-(1-methyl-1H-imidazol-2-yl)thieno[2,3-d]pyrimidine], the inhibition at 20 µM on KRas G12C mutant (setting [2]) was 51 to 75%; at KRas G12C mutant (setting [3]), 26 to 50%; at KRas G12D mutant (setting [4]), 1 to 25%; at KRas G12D mutant (setting [5]), 0%; at KRas Q61H mutant (setting [6]), 51 to 75%; on KRas Q61H mutant (setting [7]), 26 to 50%. For the same molecule, the inhibition at 20 µM at KRas wild type (setting [8]) was 51 to 75%; at KRas wild type (setting [9]), 51 to 75%; at Rac-1, 0%; on Rho-A, 76 to 100%. Besides, the “% inh of AKT phosphorylation in PANC-1” value in assay [1] was “D (76-100% inhibition)”.
Consider `Cc1c(-c2ccn(C(C)C)n2)sc2nc(-c3nccn3C)nc(NC[C@@H]3CCC(=O)N3)c12` [Compound 51], for which the inhibition at 20 µM on KRas G12C mutant (setting [2]) was 26 to 50%; on KRas G12C mutant (setting [3]), 51 to 75%; at KRas G12D mutant (setting [4]) it was 51 to 75%; on KRas G12D mutant (setting [5]) it was 26 to 50%; at KRas Q61H mutant (setting [6]) it was 51 to 75%; at KRas Q61H mutant (setting [7]), 51 to 75%. Further, the inhibition at 20 µM lay in the range of 51 to 75% on KRas wild type (setting [8]), 51 to 75% on KRas wild type (setting [9]), 51 to 75% at Rac-1 and 76 to 100% on Rho-A. The “% inh of AKT phosphorylation in PANC-1” value in assay [1] was 0 (0% inhibition).
With `Cc1c(-c2ccn(C(C)C)n2)sc2nc(-c3nccn3C)nc(NC[C@H]3CCC(=O)N3)c12` [Compound 52, (R)-5-(((6-(1-Isopropyl-1H-pyrazol-3-yl)-5-methyl-2-(1-methyl-1H-imidazol-2-yl)thieno[2,3-d]pyrimidin-4-yl)amino)methyl)pyrrolidin-2-one], the inhibition at 20 µM at KRas G12C mutant (setting [2]) was 26 to 50%; on KRas G12C mutant (setting [3]), 51 to 75%; on KRas G12D mutant (setting [4]), 51 to 75%; on KRas G12D mutant (setting [5]) it was 51 to 75%; at KRas Q61H mutant (setting [6]), 51 to 75%; at KRas Q61H mutant (setting [7]), 51 to 75%. For the same molecule, the inhibition at 20 µM on KRas wild type (setting [8]) is 51 to 75%; at KRas wild type (setting [9]) it was 51 to 75%; on Rac-1 it was 51 to 75%; on Rho-A it was 76 to 100%. Also, the “% inh of AKT phosphorylation in PANC-1” value in assay [1] is 0 (0% inhibition).
With `Cc1c(-c2ccn(C(C)C)n2)sc2nc(-c3nccn3C)nc(NCCc3ncc[nH]3)c12` [Compound 53, N-(2-(1H-Imidazol-2-yl)ethyl)-6-(1-isopropyl-1H-pyrazol-3-yl)-5-methyl-2-(1-methyl-1H-imidazol-2-yl)thieno[2,3-d]pyrimidin-4-amine], the inhibition at 20 µM on KRas G12C mutant (setting [2]) is 26 to 50%; at KRas G12C mutant (setting [3]), 26 to 50%; at KRas G12D mutant (setting [4]), 26 to 50%; at KRas G12D mutant (setting [5]), 1 to 25%; at KRas Q61H mutant (setting [6]), 26 to 50%; at KRas Q61H mutant (setting [7]), 26 to 50%. Moreover, the inhibition at 20 µM at KRas wild type (setting [8]) was in the range of 51 to 75%; on KRas wild type (setting [9]), 26 to 50%; on Rac-1 it was 1 to 25%; on Rho-A, 76 to 100%. In addition, in assay [1], the “% inh of AKT phosphorylation in PANC-1” value was 0 (0% inhibition).
For the molecule `CO[C@H]1CC[C@H](Nc2nc(-c3nccn3C)nc3sc(-c4ccn(C(C)C)n4)c(C)c23)CC1` [Compound 54], the inhibition at 20 µM at KRas G12C mutant (setting [2]) was in the range of 76 to 100%; on KRas G12C mutant (setting [3]), 76 to 100%; on KRas G12D mutant (setting [4]), 76 to 100%; on KRas G12D mutant (setting [5]), 51 to 75%; at KRas Q61H mutant (setting [6]), 76 to 100%; at KRas Q61H mutant (setting [7]), 51 to 75%. In addition, the inhibition at 20 µM fell in the range of 76 to 100% at KRas wild type (setting [8]), 76 to 100% on KRas wild type (setting [9]), 26 to 50% at Rac-1 and 51 to 75% on Rho-A. The “% inh of AKT phosphorylation in PANC-1” value in assay [1] was “<A>”.
Take `CO[C@H]1CC[C@@H](Nc2nc(-c3nccn3C)nc3sc(-c4ccn(C(C)C)n4)c(C)c23)CC1` [Compound 55]: the inhibition at 20 µM was 26 to 50% at KRas G12C mutant (setting [2]); 26 to 50% at KRas G12C mutant (setting [3]); 26 to 50% on KRas G12D mutant (setting [4]); 51 to 75% on KRas G12D mutant (setting [5]); 26 to 50% at KRas Q61H mutant (setting [6]); 1 to 25% at KRas Q61H mutant (setting [7]). The inhibition at 20 µM on KRas wild type (setting [8]) was 1 to 25%; on KRas wild type (setting [9]), 1 to 25%; at Rac-1, 0%; on Rho-A it was 51 to 75%. Besides, in assay [1], the “% inh of AKT phosphorylation in PANC-1” value is “<A>”.
Take `Cc1c(-c2ccn(C(C)C)n2)sc2nc(-c3nccn3C)nc(NCc3ncc[nH]3)c12` [Compound 57, N-((1H-Imidazol-2-yl)methyl)-6-(1-isopropyl-1H-pyrazol-3-yl)-5-methyl-2-(1-methyl-1H-imidazol-2-yl)thieno[2,3-d]pyrimidin-4-amine]: the inhibition at 20 µM was in the range of 26 to 50% at KRas G12C mutant (setting [2]); 26 to 50% on KRas G12C mutant (setting [3]); 26 to 50% on KRas G12D mutant (setting [4]); 1 to 25% at KRas G12D mutant (setting [5]); 26 to 50% at KRas Q61H mutant (setting [6]); 26 to 50% on KRas Q61H mutant (setting [7]). Further, the inhibition at 20 µM was 26 to 50% on KRas wild type (setting [8]), 26 to 50% at KRas wild type (setting [9]), 0% at Rac-1 and 51 to 75% on Rho-A. Further, the “% inh of AKT phosphorylation in PANC-1” value in assay [1] is listed as 0 (0% inhibition).
In the case of `Cc1c(-c2ccn(C(C)C)n2)sc2nc(-c3nccn3C)nc(NCCc3cn(C)cn3)c12` [Compound 58, 6-(1-Isopropyl-1H-pyrazol-3-yl)-5-methyl-2-(1-methyl-1H-imidazol-2-yl)-N-(2-(1-methyl-1H-imidazol-4-yl)ethyl)thieno[2,3-d]pyrimidin-4-amine], the inhibition at 20 µM was 76 to 100% on KRas G12C mutant (setting [2]); 76 to 100% at KRas G12C mutant (setting [3]); 51 to 75% at KRas G12D mutant (setting [4]); 26 to 50% at KRas G12D mutant (setting [5]); 51 to 75% on KRas Q61H mutant (setting [6]); 51 to 75% on KRas Q61H mutant (setting [7]). Besides, the inhibition at 20 µM lay in the range of 76 to 100% at KRas wild type (setting [8]), 76 to 100% on KRas wild type (setting [9]), 26 to 50% at Rac-1 and 76 to 100% at Rho-A. Besides, the “% inh of AKT phosphorylation in PANC-1” value in assay [1] is 0 (0% inhibition).
